The record followed here is publication PMC12921516 (ACS Bio & Med Chem Au, 2025).

Assay type in all cases: biochemical
The target of experiment [1] is T1, hPTP1B1–400 (Homo sapiens, UniProt P18031).
T1 construct: h PTP1B 1–400 IC 50 (μM ± S.D); made in house
T1 sequence (P18031 1-400): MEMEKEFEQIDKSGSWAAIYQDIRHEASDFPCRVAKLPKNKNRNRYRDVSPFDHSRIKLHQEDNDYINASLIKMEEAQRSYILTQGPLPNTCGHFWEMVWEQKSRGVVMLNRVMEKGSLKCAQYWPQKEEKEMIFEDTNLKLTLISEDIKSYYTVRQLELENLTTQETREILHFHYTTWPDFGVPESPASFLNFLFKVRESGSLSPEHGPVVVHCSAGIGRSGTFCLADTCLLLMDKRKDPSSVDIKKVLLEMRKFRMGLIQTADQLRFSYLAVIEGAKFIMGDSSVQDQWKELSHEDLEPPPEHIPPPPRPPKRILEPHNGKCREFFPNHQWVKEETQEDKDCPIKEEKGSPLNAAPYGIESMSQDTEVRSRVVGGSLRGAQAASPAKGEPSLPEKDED
As to the kind of experiment: Enzymatic kinetics studies (Lineweaver–Burk, model fitting). The conditions noted are these: for inhibition type: hPTP1B1–400, best fit model; for Ki: hPTP1B1–400, pNPP 0.1–0.5 mM; for Km / Vmax: hPTP1B1–400 with inhibitor. As to the method: Kinetic analyses were conducted using varying concentrations of substrate and inhibitor.
Five increasing concentrations of each inhibitor were tested, according to their previously determined IC50 values. The negative control was prepared by omitting the inhibitor in the presence of the enzyme and substrate. The Supporting Information includes detailed eqs (E1–E5) used to determine the kinetic parameters and mechanisms involved in PTP1B inhibition.
Equation 1 was used to obtain enzyme kinetic parameters by fitting data to the Michaelis-Menten model (Origin Pro
The equations defined for the following non-linear inhibition models were used to determine the mechanism of
PTP1B inhibition: competitive (E2), non-competitive (E3), uncompetitive (E4), and mixed (E5) (Origin Pro 2018 (64
(1+ ( ))(x05nh ) + (1+ ( )) (x05 nh)
Vmax is the maximum velocity, x is the substrate concentration, i is the inhibitor concentration, nh is the number of
Hill. Ki is the inhibition constant, and Km is the Michaelis constant.

For experiment [2], the target named is T2, hTCPTP1–415 (Homo sapiens, UniProt P17706).
T2 construct: h TCPTP 1–415 IC 50 (μM ± S.D); made in house
T2 sequence (P17706 1-415): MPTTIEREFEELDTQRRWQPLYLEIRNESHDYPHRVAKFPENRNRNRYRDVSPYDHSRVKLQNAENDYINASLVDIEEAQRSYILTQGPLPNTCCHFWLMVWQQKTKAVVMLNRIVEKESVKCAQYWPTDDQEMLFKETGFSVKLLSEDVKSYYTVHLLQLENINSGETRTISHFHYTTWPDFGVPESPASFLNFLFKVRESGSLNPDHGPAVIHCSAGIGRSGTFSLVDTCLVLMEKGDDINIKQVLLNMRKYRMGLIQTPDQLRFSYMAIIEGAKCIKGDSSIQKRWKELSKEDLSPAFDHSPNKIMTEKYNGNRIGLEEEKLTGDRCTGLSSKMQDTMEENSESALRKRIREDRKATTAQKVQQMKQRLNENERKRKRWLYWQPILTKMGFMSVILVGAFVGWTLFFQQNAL
As to the kind of experiment: TCPTP inhibitory activity. The conditions noted are these: pNPP substrate; tested up to 100 μM. As to the method:
The effectiveness and safety of a PTP1B inhibitor primarily depend on its selectivity, given that protein tyrosine phosphatases share significant structural homology within their catalytic domains. […] Ertiprotafib was also included in this study.
Aliquots of 0–10 μL of the test compounds (triplicate) were taken and incubated for 15 min at 37 °C with 85 μL of Tris buffer solution (50 mM, pH 6.8) containing PTP1B enzyme and 5 μL of p-nitrophenyl phosphate substrate (pNPP, 10 mM). The absorbance of the hydrolysis product, p-nitrophenol (pNP), was measured at 405 nm using a 96-microplate absorbance reader (Accuris SmartReader 96). The inhibitory activity was determined according to eq . %enzyme=(A405b/A405c)×100 1 Where: % enzyme is the percentage of inhibition for PTP1B or TCPTP
The IC50 was calculated using regression analysis, eq : %inhibition=A100/1+(I/IC50)^s 2 Where: A100: Maximum inhibition

For experiment [3], the target named is T1, hPTP1B1–400. As to the kind of experiment: PTP1B inhibition, pNPP hydrolysis, long form. The conditions noted are these: pNPP substrate, 15 min 37 °C, pH 6.8; ± S.D.

SMILES strings stand for the structures.

By Ki is commonly meant the equilibrium dissociation constant of an inhibitor or competing ligand from its target. The term Km denotes the concentration of substrate that gives half-maximal velocity. One may read the Vmax as the rate approached at saturating substrate. The term IC50 denotes the midpoint of a concentration-inhibition curve. A low value points to higher potency. For the compound `CC1(C)c2[nH]c3ccc(OC(F)F)cc3c2C[C@]2(C)[C@H]3C(=O)C=C4[C@@H]5C[C@@](C)(C(=O)O)CC[C@]5(C)CC[C@@]4(C)[C@]3(C)CC[C@@H]12` [compound 4b, (20β)-5′-(Difluoromethoxy)-11-oxo-1′H-oleana-2,12-dieno[3,2-b]indol-29-oic Acid], in experiment [1], the inhibition type entry is “uncompetitive”, affinity was put at a Ki of 0.32 ± 0.05 µM, the Michaelis-Menten constant (Km) came out at 760 ± 170 µM and the Vmax worked out at 1.24 ± 0.18 mM/min. In experiment [2], this compound yielded a half-maximal inhibitory concentration (IC50) of over 100 µM. Besides, half-maximal inhibition in experiment [3] (IC50) was put at 1.58 ± 0.07 µM.

As to `CC1(C)c2[nH]c3ccc(S(N)(=O)=O)cc3c2C[C@]2(C)[C@H]3C(=O)C=C4[C@@H]5C[C@@](C)(C(=O)O)CC[C@]5(C)CC[C@@]4(C)[C@]3(C)CC[C@@H]12` [compound 4g, (20β)-5′-Sulfamoyl-11-oxo-1′H-oleana-2,12-dieno[3,2-b]indol-29-oic Acid], in experiment [1], the inhibition type entry is listed as “uncompetitive”, the Ki worked out at 1.62 ± 0.19 µM, the Km was found to be 870 ± 130 µM and the maximal velocity (Vmax) stood at 1.46 ± 0.15 mM/min. The IC50 in experiment [2] is over 100 µM. Further, in experiment [3], the concentration for half-maximal inhibition (IC50) stood at 2.06 ± 0.12 µM.

For the compound `CC1(C)c2c(cnn2-c2ccc(S(N)(=O)=O)cc2)C[C@]2(C)[C@H]3C(=O)C=C4[C@@H]5C[C@@](C)(C(=O)O)CC[C@]5(C)CC[C@@]4(C)[C@]3(C)CC[C@@H]12` [compound 5g, (20β)-11-Oxo-2′-(4-sulfamoylphenyl)-2′H-oleana-2,12-dieno[3,2-c]pyrazol-29-oic Acid], in experiment [1], the inhibition type result is given as “uncompetitive”, affinity was put at a Ki of 0.72 ± 0.12 µM, the Michaelis constant (Km) worked out at 970 ± 200 µM and the Vmax is reported as 1.34 ± 0.21 mM/min. The IC50 in experiment [2] is over 100 µM. In experiment [3], this compound displayed an IC50 of 1.48 ± 0.18 µM.
